Experimental data taken from patent US7678918B2, “Intermediates for imidazonaphthyridines” (3M Innovative Properties Company, priority 1997, dated 2010).

Key:
IFN = assay: Cytokine Induction in Human Cells: interferon (IFN) secreted by PBMCs, A549/encephalomyocarditis bioassay; format: cell-based; conditions: 18 to 24 hours
Text: (§1) An in vitro human blood cell system was used to assess cytokine induction by compounds of the invention. Activity is based on the measurement of interferon and tumor necrosis factor (ℑ) (IFN and TNF, respectively) secreted into culture media as described by Testerman et. al. In “Cytokine Induction by the Immunomodulators Imiquimod and S-27609”, Journal of Leukocyte Biology, 58, 365-372 (September, 1995). Blood Cell Preparation for Culture
(§2) Whole blood is collected by venipuncture into EDTA vacutainer tubes from healthy human donors. Peripheral blood mononuclear cells (PBMCs) are separated from whole blood by Histopaque®-1077 (Sigma Chemicals, St. Louis, Mo.) density gradient centrifugation. The PBMCs are suspended at 1.5-2×10^6 cells/mL in RPMI 1640 medium containing 10% fetal bovine serum, 2 mM L-glutamine and 1% penicillin/streptomycin solution (RPMI complete). 1 mL portions of PBMC suspension are added to 24 well flat bottom sterile tissue culture plates.
(§3) The compounds are solubilized in dimethyl sulfoxide (DMSO). The DMSO concentration should not exceed a final concentration of 1% for addition to the culture wells. The compounds are generally tested in a concentration range of from 0.1 to 100 μM.
(§4) The solution of test compound is added to the wells containing 1 mL of PBMCs in media. The plates are covered with plastic lids, mixed gently and then incubated for 18 to 24 hours at 37° C. with a 5% carbon dioxide atmosphere.
(§5) Following incubation the plates are centrifuged for 5-10 minutes at 1000 rpm (˜200×g) at 4° C. The cell culture supernatant is removed with a sterile polypropylene pipet and transferred to a 2 mL sterile cryotube. Samples are maintained at −70° C. until analysis.
Interferon is determined by bioassay using A549 human lung carcinoma cells challenged with encephalomyocarditis. The details of the bioassay method have been described by G. L. Brennan and L. H. Kronenberg in “Automated Bioassay of Interferons in Micro-test Plates”, Biotechniques, June/July 78, 1983, incorporated herein by reference. Briefly stated the method is as follows: A549 cells are incubated with samples and standard interferon dilutions at 37° C. for 24 hours. The incubated cells are then infected with an inoculum of encephalomyocarditis virus. The infected cells are incubated for an additional 24 hours at 37° C. before quantifying for viral cytopathic effect. The viral cytopathic effect is quantified by staining followed by visual scoring of the plates. Results are expressed as alpha reference units/mL based on the value obtained for NIH Human Leukocyte IFN standard.

TNF = assay: Cytokine Induction in Human Cells: tumor necrosis factor (TNF) secreted by PBMCs, ELISA; format: cell-based; conditions: 18 to 24 hours
Text: as §1, §2, §3, §4, §5
Tumor necrosis factor (ℑ) (TNF) concentration is determined using an ELISA kit available from Genzyme, Cambridge, Mass. The results are expressed as pg/mL.
Further: call rule not given here.

SMILES	IFN induction (IFN; Dose Concentration 0.1 μM)	IFN induction (IFN; Dose Concentration 1.0 μM)	IFN induction (IFN; Dose Concentration 10.0 μM)	IFN induction (IFN; Dose Concentration 100.0 μM)	TNF induction (TNF; Dose Concentration 0.1 μM)	TNF induction (TNF; Dose Concentration 1.0 μM)	TNF induction (TNF; Dose Concentration 10.0 μM)	TNF induction (TNF; Dose Concentration 100.0 μM)
CCCCc1nc2c(N)nc3cccnc3c2n1CCCCNC(=O)c1cc(C(F)(F)F)cc(C(F)(F)F)c1 [Example 161]	±	+	+	+	−	−	+	+
CCCCc1nc2c(N)nc3cccnc3c2n1CCCCNC(=O)c1cc(OC)c(OC)c(OC)c1 [Example 162]	+	+	+	+	−	+	+	+
CCCCc1nc2c(N)nc3cccnc3c2n1CCCCNC(=O)c1c(F)c(F)c(F)c(F)c1F [Example 163]	+	+	+	+	−	+	+	−
CCCCc1nc2c(N)nc3cccnc3c2n1CCCCNC(=O)c1ccc(F)cc1 [Example 166]	−	+	+	−	−	+	+	−
CCCCc1nc2c(N)nc3cccnc3c2n1CCCCNC(=O)CC(C)(C)C [Example 172]	+	+	+	+	−	+	+	+
CCCCc1nc2c(N)nc3cccnc3c2n1CCCCNC(=O)C1CC1 [Example 173]	+	+	+	+	−	+	+	+
CCCCc1nc2c(N)nc3cccnc3c2n1CCCCNC(=O)C1CCCC1 [Example 174]	+	+	+	+	+	+	+	−
CCCCc1nc2c(N)nc3cccnc3c2n1CCCCNC(=O)CCC1CCCC1 [Example 175]	−	+	+	−	−	+	+	−
CCCCc1nc2c(N)nc3cccnc3c2n1CCCCNC(=O)c1ccc(C#N)cc1 [Example 176]	−	+	+	+	−	−	+	+
CCCCc1nc2c(N)nc3cccnc3c2n1CCCCNC(=O)c1c(C)cc(C)cc1C [Example 180]	+	+	+	+	±	+	+	+
CCCCc1nc2c(N)nc3cccnc3c2n1CCCCNC(=O)CCCCC(=O)OC [Example 182]	−	+	+	+	−	+	+	−
CCCCc1nc2c(N)nc3cccnc3c2n1CCCCNC(=O)c1cccnc1Cl [Example 183]	−	−	−	−	− and +	− and +	− and +	−
CCCCc1nc2c(N)nc3cccnc3c2n1CCCCNC(=O)Cc1ccc(OC)cc1 [Example 187]	−	+	+	+	−	+	+	−
CCCCc1nc2c(N)nc3cccnc3c2n1CCCCNC(=O)c1ccccc1OC [Example 188]	+	+	+	−	−	+	+	−
CCCCCCCOc1ccc(C(=O)NCCCCn2c(CCCC)nc3c(N)nc4cccnc4c32)cc1 [Example 190]	+	+	+	−	−	+	+	−
CCCCc1nc2c(N)nc3cccnc3c2n1CCNC(=O)Cc1ccsc1 [Example 191]		+	+	+		−	+	+
CCCCc1nc2c(N)nc3cccnc3c2n1CCNC(=O)CCCc1ccc([N+](=O)[O-])cc1 [Example 195]	−	−	+	−	−	+	+	+
CCCCc1nc2c(N)nc3cccnc3c2n1CCNC(=O)Cc1ccc(SC)cc1 [Example 197]	−	−	+	+	−	+	+	+
CCCCc1nc2c(N)nc3cccnc3c2n1CCNC(=O)C1C2CC3C(C2=O)C31 (stereo not drawn) [Example 198]	−	−	+	+	−	+	+	+
CCCCc1nc2c(N)nc3cccnc3c2n1CCNC(=O)CCC(F)(F)F [Example 199]	+	−	+	+	−	−	+	+
CCCCCCCCCCCC(=O)NCCn1c(CCCC)nc2c(N)nc3cccnc3c21 [Example 201]	−	−	−	−	−	−	−	+
CCCCc1nc2c(N)nc3cccnc3c2n1CCNC(=O)c1ccc(Br)s1 [Example 204]	+	+	+	+	−	+	+	+
